This note sets out measurements from US20150352108A1, “AMINO-PYRIMIDINE COMPOUNDS AS INHIBITORS OF TBK1 AND/OR IKK EPSILON” (Alzheimer's Institute of America, priority 2009, published 2015).

Assay [1] addresses T1, IKKε (Homo sapiens, UniProt Q14164).
T1 construct: His-tag; made in house; host or cells: Sf9 insect cells
T1 sequence (Q14164 1-716): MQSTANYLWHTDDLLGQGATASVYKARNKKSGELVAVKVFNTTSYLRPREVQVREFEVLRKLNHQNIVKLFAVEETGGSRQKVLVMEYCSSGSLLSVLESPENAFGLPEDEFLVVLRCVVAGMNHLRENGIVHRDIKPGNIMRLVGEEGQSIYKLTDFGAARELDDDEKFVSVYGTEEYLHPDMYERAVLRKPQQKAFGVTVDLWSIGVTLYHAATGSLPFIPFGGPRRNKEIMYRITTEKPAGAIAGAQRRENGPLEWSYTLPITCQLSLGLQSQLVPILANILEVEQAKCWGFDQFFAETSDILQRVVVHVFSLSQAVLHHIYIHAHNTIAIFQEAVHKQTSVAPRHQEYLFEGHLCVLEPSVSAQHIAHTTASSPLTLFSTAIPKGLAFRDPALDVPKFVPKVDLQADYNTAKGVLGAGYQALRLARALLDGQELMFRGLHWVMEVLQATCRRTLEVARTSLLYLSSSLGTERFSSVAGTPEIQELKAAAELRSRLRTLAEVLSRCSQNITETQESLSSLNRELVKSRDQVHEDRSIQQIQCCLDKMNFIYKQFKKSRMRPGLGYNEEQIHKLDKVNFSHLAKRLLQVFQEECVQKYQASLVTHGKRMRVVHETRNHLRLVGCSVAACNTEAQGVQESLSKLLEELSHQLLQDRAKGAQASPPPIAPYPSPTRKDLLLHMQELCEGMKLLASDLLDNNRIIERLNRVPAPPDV
Description: In-vitro IKKε kinase assay ([γ33]ATP filter-plate). Format: biochemical. The method in brief:
(§1)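 His-tagged IKKε and TBK1 from Sf9 cells were assayed with myelin basic protein or casein and [γ33]ATP at 2×Km ATP (32 μM for IKKε, 60 μM for TBK1). Enzyme was 0.1 or 0.015 μg/ml for IKKε and 0.1 or 0.02 μg/ml for TBK1 (normal/sensitized). Reactions ran 30-45 min, were filter-captured, scintillation-counted, and normalized to DMSO after background subtraction.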

Assay [2] deals with T2, TBK1 (Homo sapiens, UniProt Q9UHD2).
T2 construct: His-tag; made in house; host or cells: Sf9 insect cells
T2 sequence (Q9UHD2 1-729): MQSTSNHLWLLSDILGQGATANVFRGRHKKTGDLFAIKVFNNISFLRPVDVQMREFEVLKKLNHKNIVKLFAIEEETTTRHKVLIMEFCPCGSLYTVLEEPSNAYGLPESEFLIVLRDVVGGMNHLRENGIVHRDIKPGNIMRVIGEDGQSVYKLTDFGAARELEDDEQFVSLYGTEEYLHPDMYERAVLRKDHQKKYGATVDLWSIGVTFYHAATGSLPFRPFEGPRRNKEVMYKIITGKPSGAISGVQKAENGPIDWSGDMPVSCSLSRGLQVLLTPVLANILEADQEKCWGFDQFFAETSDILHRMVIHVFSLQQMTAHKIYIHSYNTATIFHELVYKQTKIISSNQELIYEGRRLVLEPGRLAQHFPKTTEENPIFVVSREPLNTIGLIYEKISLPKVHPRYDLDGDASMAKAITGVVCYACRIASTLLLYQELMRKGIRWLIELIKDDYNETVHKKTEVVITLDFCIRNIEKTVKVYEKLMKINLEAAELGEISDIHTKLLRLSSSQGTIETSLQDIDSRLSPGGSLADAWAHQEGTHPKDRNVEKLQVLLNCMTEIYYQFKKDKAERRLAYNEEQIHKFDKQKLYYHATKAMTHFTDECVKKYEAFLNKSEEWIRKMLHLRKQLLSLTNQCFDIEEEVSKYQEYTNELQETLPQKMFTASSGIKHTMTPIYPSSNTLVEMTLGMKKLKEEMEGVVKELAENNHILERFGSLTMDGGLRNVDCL
Description: In-vitro TBK1 kinase assay ([γ33]ATP filter-plate). Format: biochemical. A digest of the protocol: as §1

The test system of assay [3] is IKKε-mediated phosphorylation of IRF3. As to the kind of experiment: In-situ phosphorylation of IRF3 (pIRF3 Ser396 ELISA) in HEK293T cells cotransfected with IRF3 and IKKε. Format: cell-based. The conditions noted are these: Homo sapiens, HEK-293T. A digest of the protocol: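 Cells for the IRF7 Western blots carried IRF7 and TBK1 plasmids, were seeded at 150,000/well, exposed to compound overnight and probed for pSer477/Ser479 IRF7. The ELISA readout used IRF3 + IKKε-cotransfected HEK293T at 20,000/well with 20 h treatment, quantifying pSer396 IRF3 relative to DMSO, plus a parallel CellTiter-Glo viability check.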

Where [4] appears, read: text bins, read-out: IC50 for inhibition of the kinase activity of IKKε.
[5] abbreviates: text bins, read-out: IC50 for inhibition of the kinase activity of TBK1.
The mark [6] stands for this setting: HEK293T cells in culture, Table 3, read-out: pIRF3 ELISA IC50.
The mark [7] stands for this setting: HEK293T cells, 20 hours, text bins, read-out: IC50 for inhibition of the in-situ IKKε-mediated phosphorylation of IRF3.

Where two headings read alike, the source gives them in different places. Bounds are passed on as bounds.

On to `COc1cc(Nc2nccc(-c3ccc(OC4CCOCC4)c(C#N)c3)n2)ccc1S(=O)(=O)N1CCCN(C)CC1` [compound 392, 5-[2-({3-Methoxy-4-[(4-methyl-1,4-diazepan-1-yl)sulfonyl]phenyl}amino)pyrimidin-4-yl]-2-(tetrahydro-2H-pyran-4-yloxy)benzonitrile], for which the IC50 in assay [1] (Table 3, read-out: IKKε IC50) was 0.2 nM; in assay [1] (setting [4]), below 5 nM; in assay [2] (Table 3, read-out: TBK1 IC50), 0.2 nM; in assay [2] (setting [5]) it was below 10 nM; in assay [3] (setting [6]), 12.2 nM; in assay [3] (setting [7]), below 100 nM.
`N#Cc1cc(-c2ccnc(Nc3ccc(F)c(OCCN)c3)n2)ccc1OCC1CC1` [compound 612, 5-(2-{[3-(2-Aminoethoxy)-4-fluorophenyl]amino}pyrimidin-4-yl)-2-(cyclopropylmethoxy) benzonitrile]: the IC50 in assay [1] (setting [4]) is below 5 nM; in assay [2] (setting [5]), below 10 nM; in assay [3] (setting [7]), 100 to 250 nM.
On to `N#Cc1cc(-c2ccnc(Nc3cccc(NC(=O)N4CCOCC4)c3)n2)ccc1OC1CCOCC1` [compound 646, N-[3-({4-[3-Cyano-4-(tetrahydro-2H-pyran-4-yloxy)phenyl]pyrimidin-2-yl}amino)phenyl] morpholine-4-carboxamide], for which the IC50 in assay [1] (Table 3, read-out: IKKε IC50) was 0.7 nM; in assay [1] (setting [4]) it was below 5 nM; in assay [2] (Table 3, read-out: TBK1 IC50) it was 1.3 nM; in assay [2] (setting [5]), below 10 nM; in assay [3] (setting [6]), 30.9 nM; in assay [3] (setting [7]) it was below 100 nM.
With `COc1cc(Nc2nccc(-c3ccc(OC4CCOCC4)c(C#N)c3)n2)ccc1C(=O)N1CCN(C)CC1` [compound 354, 5-[2-({3-methoxy-4-[(4-methylpiperazin-1-yl)carbonyl]phenyl}amino)pyrimidin-4-yl]-2-(tetrahydro-2H-pyran-4-yloxy)benzonitrile], the half-inhibitory concentration (IC50) in assay [1] (setting [4]) is below 5 nM; in assay [2] (setting [5]), below 10 nM; in assay [3] (setting [7]), below 100 nM.
Turning to `N#Cc1cc(-c2ccnc(Nc3cccc(CS(=O)(=O)NCCO)c3)n2)ccc1NC(=O)C1CC1` [compound 627, N-(2-Cyano-4-{2-[(3-{[(2-hydroxyethyl)sulfamoyl]methyl}phenyl)amino]pyrimidin-4-yl}phenyl) cyclopropane-carboxamide], the IC50 in assay [1] (Table 3, read-out: IKKε IC50) was 3 nM; in assay [1] (setting [4]) it was below 5 nM; in assay [2] (Table 3, read-out: TBK1 IC50) it was 1.3 nM; in assay [2] (setting [5]), below 10 nM; in assay [3] (setting [6]) it was 1100 nM.
On to `COc1cc(Nc2nccc(-c3ccc(OC4CCOCC4)c(C#N)c3)n2)ccc1CN1CC(O)C1` [compound 483, 5-[2-({4-[(3-Hydroxyazetidin-1-yl)methyl]-3-methoxyphenyl}amino)pyrimidin-4-yl]-2-(tetrahydro-2H-pyran-4-yloxy)benzonitrile], for which the values for the IC50 in assay [1] (setting [4]), in assay [2] (setting [5]) and in assay [3] (setting [7]) were 5 to 50 nM, below 10 nM and below 100 nM, respectively.
As for `COc1cc(Nc2nccc(-c3ccc(OC4CCOCC4)c(C#N)c3)n2)ccc1C(=O)N1CCC(N2CCCC2)C1` (centres unmarked) [compound 502, 5-(2-{[4-(1,3′-bipyrrolidin-1′-ylcarbonyl)-3-methoxyphenyl]amino}pyrimidin-4-yl)-2-(tetrahydro-2H-pyran-4-yloxy)benzonitrile], the IC50 in assay [1] (setting [4]) was below 5 nM; in assay [2] (setting [5]) it was below 10 nM; in assay [3] (setting [7]), below 100 nM.
In the same order, the values of `COc1cc(Nc2nccc(-c3ccc(OC4CCOCC4)c(C#N)c3)n2)ccc1CN1CCN(CCO)CC1` [compound 477, 5-{2-[(4-{[4-(2-Hydroxyethyl)piperazin-1-yl]methyl}-3-methoxyphenyl)amino]pyrimidin-4-yl}-2-(tetrahydro-2H-pyran-4-yloxy)benzonitrile] are below 5 nM, 10 to 100 nM and below 100 nM.
For `COCCNCc1ccc(Nc2nccc(-c3ccc(OC4CCOCC4)c(C#N)c3)n2)cc1` [compound 488, 5-{2-[(4-{[(2-methoxyethyl)amino]methyl}phenyl)amino]pyrimidin-4-yl}-2-(tetrahydro-2H-pyran-4-yloxy)benzonitrile], in that order: below 5 nM, below 10 nM and below 100 nM.
For the molecule `C[C@H](O)C(=O)N1CCC(Oc2ccc(-c3ccnc(Nc4ccc(C(=O)N5CCN(C)CC5)cc4)n3)cc2C#N)CC1` [Example 35, 2-({1-[(2S)-2-hydroxypropanoyl]piperidin-4-yl}oxy)-5-[2-({4-[(4-methylpierazin-1-yl)carbonyl]phenyl}amino)pyrimidin-4-yl]benzonitrile], the results for the half-inhibitory concentration (IC50) in assay [1] (setting [4]), in assay [2] (setting [5]) and in assay [3] (setting [7]) were below 5 nM, below 10 nM and 250 to 500 nM, respectively.
For `COc1cc(Nc2nccc(-c3ccc(OC4CCOCC4)c(C#N)c3)n2)ccc1C(=O)N1CCN(CCO)CC1` [compound 476, 5-{2-[(4-{[4-(2-Hydroxyethyl)piperazin-1-yl]carbonyl}-3-methoxyphenyl)amino]pyrimidin-4-yl}-2-(tetrahydro-2H-pyran-4-yloxy)benzonitrile], in that order: below 5 nM, below 10 nM and below 100 nM.
For `N#Cc1cc(-c2ccnc(Nc3cccc(N)c3)n2)ccc1OC1CCOCC1` [compound 393, 5-{2-[(3-Aminophenyl)amino]pyrimidin-4-yl}-2-(tetrahydro-2H-pyran-4-yloxy)benzonitrile], in that order: below 5 nM, below 10 nM and below 100 nM.
`COc1ccc(Nc2nccc(-c3ccc(OC4CCOCC4)c(C#N)c3)n2)cc1OCCOCCN` [Example 32, 5-[2-({3-[2-(2-aminoethoxy)ethoxy]-4-methoxyphenyl}amino)pyrimidin-4-yl]-2-(tetrahydro-2H-pyran-4-yloxy)benzonitrile]: the half-maximal inhibitory concentration (IC50) in assay [1] (setting [4]) was below 5 nM; in assay [2] (setting [5]) it was below 10 nM; in assay [3] (setting [7]), 100 to 250 nM.
In the same order, the values of `COc1cc(Nc2nccc(-c3ccc(OC4CCOCC4)c(C#N)c3)n2)ccc1C(=O)NCCC1CCCN1C` (centres unmarked) [compound 307, 4-({4-[3-cyano-4-(tetrahydro-2H-pyran-4-yloxy)phenyl]pyrimidin-2-yl}amino)-2-methoxy-N-[2-(1-methylpyrrolidin-2-yl)ethyl]benzamide] are below 5 nM, below 10 nM and 100 to 250 nM.
For `N#Cc1cc(-c2ccnc(Nc3ccc(CN4CC(O)C4)cc3)n2)ccc1OC1CCOCC1` [compound 497, 5-[2-({4-[(3-hydroxyazetidin-1-yl)methyl]phenyl}amino)pyrimidin-4-yl]-2-(tetrahydro-2H-pyran-4-yloxy)benzonitrile], in that order: below 5 nM, below 10 nM and below 100 nM.
In the same order, the values of `CC(C)N1CCN(CCOc2cc(Nc3nccc(-c4ccc(OCC5CC5)c(C#N)c4)n3)ccc2F)CC1` [compound 574, 2-(Cyclopropylmethoxy)-5-{2-[(4-fluoro-3-{2-[4-(propan-2-yl)piperazin-1-yl]ethoxy}phenyl)amino]pyrimidin-4-yl}benzonitrile] are below 5 nM, below 10 nM and 100 to 250 nM.

In general, IC50 refers to the concentration at which inhibition is half-maximal.
